Data: patent publication US20250154198A1, “PEPTIDE INHIBITORS OF INTERLEUKIN-23 RECEPTOR” (Zealand Pharma A/S, priority 2021, published 2025)
*1 amine or outer side, *2 acyl side, *3 side chain or, on linkers, in order; H or OH if unused. Where a SMILES comes first, the peptide text is derived from it. Bridges are numbered along the chain shown (N, C = ends). [ ]: non-standard residue; d: D form. The star is where a group is joined. Ala(quinolin-3-yl) = N[C@@H](Cc1cnc2ccccc2c1)C(=O)O; Trp(7-F) = N[C@@H](Cc1c[nH]c2c(F)cccc12)C(=O)O; 2Nal = N[C@@H](Cc1ccc2ccccc2c1)C(=O)O; AEF = NCCOc1ccc(C[C@H](N)C(=O)O)cc1; X1 = O=C(Cc1ccc(CN[*:1])cc1)[*:2]; 3Pal = N[C@@H](Cc1cccnc1)C(=O)O; X22 = NC(=O)C[C@@H](N*)c1cccnc1; d3Pal = N[C@H](Cc1cccnc1)C(=O)O; αMeL = CC(C)C[C@](C)(N)C(=O)O; CH2COCH2 = O=C(C[*:1])C[*:2]; αMeV = CC(C)[C@](C)(N)C(=O)O; 3Amb = NCc1cccc(C(=O)O)c1; Pyrrolidide = C1CCN(*)C1; Dab = NCC[C@H](N)C(=O)O

Molecular target: T1, human IL-23R (Homo sapiens, UniProt Q5VWK5)
T1 construct: UniProtKB—Q5VWK5, amino acids 22-629; secretion signal of the plasmid (Promega N1371); expressed in transfected cells
T1 sequence (Q5VWK5 22-629): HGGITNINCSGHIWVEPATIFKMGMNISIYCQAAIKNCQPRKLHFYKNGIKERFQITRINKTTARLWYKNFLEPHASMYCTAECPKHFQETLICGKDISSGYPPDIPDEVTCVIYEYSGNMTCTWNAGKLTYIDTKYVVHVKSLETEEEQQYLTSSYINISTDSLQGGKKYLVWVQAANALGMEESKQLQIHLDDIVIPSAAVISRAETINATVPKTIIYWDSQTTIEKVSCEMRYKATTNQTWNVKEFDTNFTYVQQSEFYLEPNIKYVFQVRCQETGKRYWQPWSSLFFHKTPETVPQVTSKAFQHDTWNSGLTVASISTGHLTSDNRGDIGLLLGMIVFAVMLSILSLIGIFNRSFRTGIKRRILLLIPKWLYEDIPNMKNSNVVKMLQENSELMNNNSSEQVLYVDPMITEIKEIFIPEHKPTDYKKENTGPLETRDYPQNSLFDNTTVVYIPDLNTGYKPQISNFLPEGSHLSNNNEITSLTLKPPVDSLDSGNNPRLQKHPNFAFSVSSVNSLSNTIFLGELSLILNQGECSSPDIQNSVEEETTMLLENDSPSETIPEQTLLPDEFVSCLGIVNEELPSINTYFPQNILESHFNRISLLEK
Experiment: Binding assay (NanoBRET displacement of fluorophore-labelled reference compound) for estimating binding affinity to human IL-23R
Conditions: Table 3-1; read-out: Ki hIL-23R
Excerpt: Binding Assay for Estimating Binding Affinity of Compounds to Human IL-23R
The compound binding affinity for IL-23R was estimated by the ability of compounds to displace a fluorophore-labelled reference compound from the human IL-23R. The assay principle relies on Bioluminescence Resonance Energy Transfer (BRET) between a fluorophore-labelled reference compound binding to the IL-23R part of a fusion protein consisting of the IL-23R fused to a Nanoluc luciferase enzyme (Nanoluc). The Nanoluc is placed in the N-terminus in close proximity to the binding domain of the ligand. Upon close proximity between the fluorophore of the fluorophore-labelled compound and the Nanoluc of the fusion protein, bioluminescence energy generated from conversion of a Nanoluc substrate, is transferred to the fluorophore resulting in an increase in BRET. In presence of an unlabelled compound, the unlabelled compound displaces the fluorophore-labelled peptide from its binding site resulting in a decrease in BRET. The concentration for which half of the fluorophore-labelled peptide is displaced by the unlabelled compound depends on the affinity of the compound for the IL-23R, and is termed the IC50 concentration. An estimated affinity (K) of the unlabelled compound for the IL-23R may be calculated using the Cheng-Prussov equation, which takes into account the concentration of the fluorophore-labelled compound used, and the affinity of the fluorophore-labelled compound for IL-23R.
The plasmid also contained a gene to confer resistance for the antibiotic hygromycin. A cell line stably expressing the Nluc-IL23R fusion protein was generated by transfection of HEK293 cells with the expression plasmid and selected with hygromycin for 3 weeks in Growth medium consisting of DMEM w/Glutamax-I containing, 10% V/V FBS, 1% V/V P/S, 1 mM Sodium Pyruvate, and 1×NEAA, and 0.3 mg/mL hygromycin. The remaining cells were propagated and considered a stable expressing Nluc-IL23R fusion protein pool clone.
Cells expressing the Nluc-IL23R fusion protein were expanded in Growth medium and membranes prepared by homogenization of a cell pellet from 18 T175 flasks (4° C. in subsequent steps). The cell pellet was lysed Tris 10 mM, 7.5, 1 mM EDTA and protease inhibitors (Complete, Roche) and homogenized using a 15 mL glass-dounce by 50 strokes. The homogenate was spun at spin @1500 rpm for 10 min, the supernatant transferred to SV-34 tubes and spun at 40000 g for 20 min at 4° C. to pellet the crude membranes. The supernatant was then removed, the pellet resuspended in 5 mL buffer containing 50 mM HEPES pH 7.4, 5 mM EGTA, and 5 mM MgCl2, and homogenized. Aliquots of the resuspended and homogenized membranes containing the Nluc-IL23R fusion protein were stored at −80° C. until use.
The plate was sealed with light impermeable plate seals, and incubated on a orbital shaker 400 rpm for 2 hours at room temperature. To determine the BRET ratio, the plate seal was removed and 25 μL of the Nanoluc substrate (Promega N1572) diluted 1:500 was added to each well and incubated for 1-2 minutes on an orbital shaker at 400 rpm. […] The BRET ratio was calculated as the fluorescence from the TAMRA/nanoluc bioluminescence. The IC50 for each compound was determined by computer-aided curve fitting using a 4-parameter logistic (4PL) non-linear model.

Compound | Ki
CC(C)C[C@]1(C)NC(=O)[C@H](Cc2ccc3ccccc3c2)NC(=O)[C@H](Cc2ccc(OCCN)cc2)NC(=O)[C@@H]2CCNC(=O)CC[C@H](NC(=O)[C@H](CO)NC(=O)Cc3ccc(cc3)CNC(=O)CC[C@@H](C(=O)N[C@@H](CCN)C(N)=O)NC1=O)C(=O)N[C@@H](Cc1c[nH]c3c(F)cccc13)C(=O)N[C@@H](CCC(N)=O)C(=O)N2 [Compound 139, [4-Aminomethyl-phenylacetyl](1c)*SE(2c)[7-F-Trp]Q[Dab](2c)[Y(2-aminoethoxy)][2-Nal][2-Me-Leu]E(1c)[Dab]-[NH2]] ([X1]SE[Trp(7-F)]Q[Dab][AEF][2Nal][αMeL]E[Dab]-NH2; lactam 3-6, N-10) | 0.612 nM
CC(C)C[C@]1(C)NC(=O)[C@H](Cc2ccc3ccccc3c2)NC(=O)[C@H](Cc2ccc(OCCN)cc2)NC(=O)[C@@H]2CCNC(=O)CC[C@H](NC(=O)[C@H](CCC(=O)N3CCCC3)NC(=O)Cc3ccc(cc3)CNC(=O)CC[C@@H](C(=O)N[C@@H](CCN)C(N)=O)NC1=O)C(=O)N[C@@H](Cc1c[nH]c3ccccc13)C(=O)N[C@@H](CCC(N)=O)C(=O)N2 [Compound 145, [4-Aminomethyl-phenylacetyl](1c)*[Q(pyrrolidin)]E(2c)WQ[Dab](2c)[Y(2-aminoethoxy)][2-Nal][2-Me-Leu]E(1c)[Dab]-[NH2]] ([X1]E(Pyrrolidide)EWQ[Dab][AEF][2Nal][αMeL]E[Dab]-NH2; lactam 3-6, N-10) | 0.723 nM
CC(C)C[C@]1(C)NC(=O)[C@H](Cc2ccc3ccccc3c2)NC(=O)[C@H](Cc2ccc(OCCN)cc2)NC(=O)[C@@H]2CCNC(=O)CC[C@H](NC(=O)[C@H](CO)NC(=O)Cc3ccc(cc3)CNC(=O)CC[C@@H](C(=O)N[C@@H](CCN)C(N)=O)NC1=O)C(=O)N[C@@H](Cc1c[nH]c3ccccc13)C(=O)N[C@@H](CCC(=O)N1CCCC1)C(=O)N2 [Compound 146, [4-Aminomethyl-phenylacetyl](1c)*SE(2c)W[Q(pyrrolidin)][Dab](2c)[Y(2-aminoethoxy)][2-Nal][2-Me-Leu]E(1c)[Dab]-[NH2]] ([X1]SEWE(Pyrrolidide)[Dab][AEF][2Nal][αMeL]E[Dab]-NH2; lactam 3-6, N-10) | 1.01 nM
CC(C)C[C@]1(C)NC(=O)[C@H](Cc2ccc3ccccc3c2)NC(=O)[C@H](Cc2ccc(OCCN)cc2)NC(=O)[C@@H]2CSCC(=O)CSC[C@H](NC(=O)[C@H](CO)NC(=O)Cc3ccc(cc3)CNC(=O)CC[C@@H](C(=O)N[C@@H](CCCNC(=N)N)C(=O)N[C@@H](Cc3cccnc3)C(N)=O)NC1=O)C(=O)N[C@@H](Cc1c[nH]c3ccccc13)C(=O)N[C@@H](CCC(N)=O)C(=O)N2 [Compound 147, [4-Aminomethyl-phenylacetyl](1c)*SC(2a)WQC(2a)[Y(2-aminoethoxy)][2-Nal][2-Me-Leu]E(1c)R[3-(3-Pyridyl)-Ala]-[NH2]] ([X1]SCWQC[AEF][2Nal][αMeL]ER[3Pal]-NH2; linker 3-6 via CH2COCH2; lactam N-10) | 0.0119 nM
CC(C)C[C@]1(C)NC(=O)[C@H](Cc2ccc3ccccc3c2)NC(=O)[C@H](Cc2ccc(OCCN)cc2)NC(=O)[C@@H]2CSCC(=O)CSC[C@H](NC(=O)[C@H](CO)NC(=O)c3cccc(c3)CNC(=O)CC[C@@H](C(=O)N[C@@H](CCN)C(=O)N[C@@H](Cc3cccnc3)C(N)=O)NC1=O)C(=O)N[C@@H](Cc1c[nH]c3ccccc13)C(=O)N[C@@H](CCC(N)=O)C(=O)N2 [Compound 148, [(3-Aminomethyl)benzoyl](1c)*SC(2a)WQC(2a)[Y(2-aminoethoxy)][2-Nal][2-Me-Leu]E(1c)[Dab][3-(3-Pyridyl)-Ala]-[NH2]] ([3Amb]SCWQC[AEF][2Nal][αMeL]E[Dab][3Pal]-NH2; linker 3-6 via CH2COCH2; lactam N-10) | 0.00897 nM
CC(C)C[C@]1(C)NC(=O)[C@H](Cc2ccc3ccccc3c2)NC(=O)[C@H](Cc2ccc(OCCN)cc2)NC(=O)[C@@H]2CSCC(=O)CSC[C@H](NC(=O)[C@H](CO)NC(=O)c3cccc(c3)CNC(=O)CC[C@@H](C(=O)N[C@@H](CCCNC(=N)N)C(=O)N[C@@H](Cc3cnc4ccccc4c3)C(N)=O)NC1=O)C(=O)N[C@@H](Cc1c[nH]c3ccccc13)C(=O)N[C@@H](CCC(N)=O)C(=O)N2 [Compound 149, [(3-Aminomethyl)benzoyl](1c)*SC(2a)WQC(2a)][Y(2-aminoethoxy)][2-Nal][2-Me-Leu]E(1c)R[3-(3-Quinolinyl)-Ala]-[NH2]] ([3Amb]SCWQC[AEF][2Nal][αMeL]ER[Ala(quinolin-3-yl)]-NH2; linker 3-6 via CH2COCH2; lactam N-10) | 0.163 nM
CC(C)C[C@]1(C)NC(=O)[C@H](Cc2ccc3ccccc3c2)NC(=O)[C@H](Cc2ccc(OCCN)cc2)NC(=O)[C@@H]2CSCC(=O)CSC[C@H](NC(=O)[C@H](CO)NC(=O)c3cccc(c3)CNC(=O)CC[C@@H](C(=O)N[C@@H](CCCNC(=N)N)C(=O)N[C@H](Cc3cccnc3)C(N)=O)NC1=O)C(=O)N[C@@H](Cc1c[nH]c3ccccc13)C(=O)N[C@@H](CCC(N)=O)C(=O)N2 [Compound 150, [(3-Aminomethyl)benzoyl](1c)*SC(2a)WQC(2a)][Y(2-aminoethoxy)][2-Nal][2-Me-Leu]E(1c)R[{d}[3-(3-Pyridyl)-Ala]]-[NH2]] ([3Amb]SCWQC[AEF][2Nal][αMeL]ER[d3Pal]-NH2; linker 3-6 via CH2COCH2; lactam N-10) | 0.597 nM
CC(C)C[C@]1(C)NC(=O)[C@H](Cc2ccc3ccccc3c2)NC(=O)[C@H](Cc2ccc(OCCN)cc2)NC(=O)[C@@H]2CSCC(=O)CSC[C@H](NC(=O)[C@H](CO)NC(=O)c3cccc(c3)CNC(=O)CC[C@@H](C(=O)N[C@@H](CCCNC(=N)N)C(=O)N[C@H](CC(N)=O)c3cccnc3)NC1=O)C(=O)N[C@@H](Cc1c[nH]c3ccccc13)C(=O)N[C@@H](CCC(N)=O)C(=O)N2 [Compound 151, [(3-Aminomethyl)benzoyl](1c)*SC(2a)WQC(2a)][Y(2-aminoethoxy)][2-Nal][2-Me-Leu]E(1c)R[3-Amino-3-(3′-pyridyl)propionyl]-[NH2]] ([3Amb]SCWQC[AEF][2Nal][αMeL]ER-X22; linker 3-6 via CH2COCH2; lactam N-10) | 0.672 nM
CC[C@H](C)[C@@H]1NC(=O)c2cccc(c2)CNC(=O)CC[C@@H](C(=O)N[C@@H](CCN)C(=O)N[C@@H](Cc2cccnc2)C(N)=O)NC(=O)[C@](C)(C(C)C)NC(=O)[C@H](Cc2ccc3ccccc3c2)NC(=O)[C@H](Cc2ccc(OCCN)cc2)NC(=O)[C@@H]2CCNC(=O)CC[C@H](NC1=O)C(=O)N[C@@H](Cc1c[nH]c3ccccc13)C(=O)N[C@@H](CCC(N)=O)C(=O)N2 [Compound 156, [(3-Aminomethyl)benzoyl](1c)*IE(2c)WQ[Dab](2c)[Y(2-aminoethoxy)][2-Nal][2-Me-Val]E(1c)[Dab][3-(3-Pyridyl)-Ala]-[NH2]] ([3Amb]IEWQ[Dab][AEF][2Nal][αMeV]E[Dab][3Pal]-NH2; lactam 3-6, N-10) | 0.0157 nM
